# T1: Bak (Homo sapiens, UniProt Q16611)
# T1 construct: expressed in transfected cells; host or cells: HEK 293T
# T1 sequence (Q16611 1-211): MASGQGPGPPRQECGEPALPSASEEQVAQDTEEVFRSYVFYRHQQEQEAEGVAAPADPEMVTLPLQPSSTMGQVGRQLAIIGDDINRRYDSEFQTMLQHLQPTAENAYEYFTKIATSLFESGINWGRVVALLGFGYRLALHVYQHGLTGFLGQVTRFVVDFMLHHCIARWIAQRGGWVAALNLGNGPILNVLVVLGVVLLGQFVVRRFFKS
# B1: HTA1320: E. coli-expressed peptide of ART positions 13 to 20 with HIV-Tat sequence and His sequence (protein)
# chain: MRGSHHHHHHGMASMTGGQQMGRDLYDDDDKDRWIRPRDLQLVPWYGRKKRRQRRRPTSSEQIM
# modifications: His-Tat-ART13/20(HTA1320)
# Experiments:
# [1] = system: HeLa cells; test: STS-induced apoptosis in Hela cells, modified TAT-ART peptides (Example 8); type: cell-based; details: 100, 300 or 1000 nM, 0.2 μM STS, 24 hours
# Method: The modified TAT-ART1320 peptides used were TAT-ART1420 (SEQ ID NO: 25) and TAT-ART1320P13V (SEQ ID NO: 26), synthesized with a peptide synthesizer.
# Hela cells (1×10^5 cells) were seeded in 12-well plates and incubated for 24 hours. Subsequently, cells were pre-treated for 1 hour by adding TAT-ART1320 or its modified peptide at a final concentration of 100, 300, or 1000 nM, followed by the addition of 0.2 μM STS and incubation for 24 hours. Cells without the addition of TAT-ART1320 or STS, together with cells without the addition of TAT-ART1320, were prepared as controls. Following incubation, cell death was evaluated by the trypan blue exclusion method.
# [2] = molecular target: T2, Bax (Homo sapiens, UniProt Q07812); test: STS-induced mitochondrial translocation of Bax in COS7 cells, confocal microscopy; type: cell-based; set-up: expressed in transfected cells; details: 1000 nM pretreatment 1 hour, COS7 with pCI-myc-Bax
# T2 sequence (Q07812 whole entry): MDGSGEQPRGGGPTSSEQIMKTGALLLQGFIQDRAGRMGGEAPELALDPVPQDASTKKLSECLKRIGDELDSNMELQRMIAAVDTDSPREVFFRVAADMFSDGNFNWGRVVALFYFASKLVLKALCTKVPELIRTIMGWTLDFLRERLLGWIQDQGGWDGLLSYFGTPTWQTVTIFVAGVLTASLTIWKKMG
# Method: It is considered that, in order for Bax to induce apoptosis, it is essential for Bax to localize to mitochondria. Thus, the effect of TAT-ARTI320 on STS-induced mitochondrial translocation of Bax was examined.
# COS7 cells (4×10^4 cells) were seeded in 12-well plates and incubated for 24 hours and then transfected with 1 μg of the pCI-myc-Bax gene. Subsequently, after further incubation for 23 hours, cells were pretreated for 1 hour with 1000 nM TAT-ART1320. Cells without TAT-ART1320 pretreatment were also prepared as controls. Further, […] of STS and 100 nM MitoTracker Orange (manufactured by Molecular Probes) were added and, after one hour, cells were fixed with 3% formaldehyde solution. Cells without the addition of STS were also prepared as controls.
# [3] = molecular target: T2, Bax; test: Apoptosis-suppressive activity, summary statements without a stated test; type: cell-based; set-up: expressed in transfected cells; host or cells: HEK 293T; details: summary statement
# [4] = molecular target: T1, Bak; test: Apoptosis induced by overexpression of myc-Bak in HEK 293T cells, trypan blue exclusion; type: cell-based; details: 100, 300 or 1000 nM, 24 hours
# Method: (§1) HEK 293T cells (1×10^5 cells) were seeded in 12-well plates and incubated for 24 hours. Subsequently, myc, myc-Bax, or myc-Bak was overexpressed within cells by introducing pCI-myc, pCI-myc-Bax, or pCI-myc-Bakplasmid respectively into HEK 293 T cells. After incubation for 17 hours, TAT-ART1320 was added at a final concentration of 100, 300, or 1000 nM, followed by further incubation for 24 hours. Cells without the addition of TAT-ARTI320 were used as controls. Following incubation, cell death was evaluated by the trypan blue exclusion method.
# [5] = system: HEK 293T cells; test: STS-induced Bax-dependent apoptosis in HEK 293T cells, trypan blue exclusion; type: cell-based; details: 0.5 μM STS, 24 hours
# Method: (§2) It is known that apoptosis induced by staurosporine (STS) is Bax-dependent. Thus, it was examined whether TAT-ART1320 can suppress STS-induced apoptosis.
# (§3) HEK 293T cells or HeLa cells, at 5×10^4 cells each, were seeded in 12-well plates and incubated for 24 hours. Subsequently, cells were pre-treated by adding TAT-ART1320 at a final concentration of 100, 300, or 1000 nM, followed by further incubation for 24 hours. Then STS was added to HEK 293T cells and HeLa cells at 0.5 μM and 0.2 μM, respectively, followed by incubation for 24 hours. Cells without the addition of TAT-ART1320 or STS, together with cells without the addition of TAT-ART1320, were prepared as controls. Following incubation, cell death was evaluated by the trypan blue exclusion method.
# [6] = system: HeLa cells; test: STS-induced Bax-dependent apoptosis in HeLa cells, trypan blue exclusion; type: cell-based; details: 0.2 μM STS, 24 hours
# Method: as §2, §3
# [7] = system: brain ischemia model gerbils; test: Brain ischemia model, 4 min bilateral common carotid artery occlusion and reperfusion; type: in vivo, gerbil
# Method: Next, to confirm the effect of the peptide according to the present invention on apoptosis-induced diseases, such as neurodegenerative diseases, using a model of brain ischemia induced by a 4 min occlusion of the bilateral common carotid arteries in gerbils the influence of TAT-ART1320 ([…]) on the neurological symptom scores after reperfusion and on delayed neuronal death in hippocampus four days after reperfusion.
# Thirteen-week-old male gerbils (SPF, Japan SLC, Inc.) were kept over a week in a barrier system animal room with controlled temperature (23±2° C), humidity (55±15%), ventilation (at least 5 air changes/hour), and light (12 hour light period, 6:30 a.m. to 6:30 p.m.). The gerbils thus maintained, weighing 60 to 80 g, were used as test animals. Food and water were provided at libitum.
# Under ether anesthesia, test animals underwent a midline skin incision in the neck to expose the bilateral internal carotid arteries (the ether anesthesia was stopped on exposure of the bilateral internal carotid arteries), which were occluded bilaterally with artery forceps, to induce brain ischemia. Reperfusion was initiated by removing the artery forceps 4 min after occlusion and the skin was sutured, immediately followed by administration of TAT-ART1320 or saline. Subsequently, test animals were warmed under an infrared lamp until their activity was recovered.
# TAT-ART1320 was prepared for administration by dissolving 3 or 30 mg of TAT-ART1320 in 10 ml of saline. This solution was administered at a dose of 10 ml/kg BW. Immediately after reperfusion TAT-ART1320 was intravenously injected into the caudal vain of each animal at 3 mg/kg BW or 30 mg/kg BW, followed by another intravenous injection after 5 hours. (The animals (n=13) receiving TAT-ART1320 at 3 mg/kg BW and animals receiving TAT-ART1320 at 30 mg/kg BW were called the 3 mg/kg group and the 30 mg/kg group, respectively.) The next day, intravenous injection was switched to subcutaneous injection and the same doses of TAT-ART1320 were administered twice at intervals of 5 hours, followed by once-daily SC injection. Animals (n=13: control group) receiving only saline were used as controls.
# Immediately after reperfusion and subsequent administration of TAT-ART1320 or saline, observation of symptoms of the central nervous system (disturbance of consciousness, convulsions, suppression of motor responses, blepharoptosis) was started. […]
# The bilateral hippocampal regions were excised from the fixed brain and 4 μm paraffin sections (about 1.5 mm posterior from the bregma) were prepared from each hippocampus. […] Subsequently, the length of bilateral hippocampal CA1 regions was measured with an image analyzer (MacSCOPE). Further, the number of survived neurons in each section was counted under a microscope. […]
# [8] = molecular target: T2, Bax; test: Apoptosis induced by overexpression of myc-Bax in HEK 293T cells, trypan blue exclusion; type: cell-based; set-up: expressed in transfected cells; host or cells: HEK 293T; details: 100, 300 or 1000 nM, 24 hours
# Method: as §1
# [9] = molecular target: T2, Bax; test: Bax-induced apoptosis in pCI-Bax-transfected HEK 293T cells with HTA1320 added, trypan blue exclusion; type: cell-based; set-up: expressed in transfected cells; host or cells: HEK 293T; details: survival after 40 hours
# Method: It was examined whether or not HTAI320, prepared in Example 3, inhibits Bax-induced apoptosis-promoting activity. HEK 293T cells were plated at 1×10^5 cells per well on 12-well plastic dishes and incubated overnight. Subsequently, cells were transfected with pCI-Bax by lipofection using opti-MEM (manufactured by GibcoBRL) and Lipofectamine (manufactured by GibcoBRL). After five hours, the medium was changed and HTA1320 were added at various concentrations. Subsequently, the cell survival rate after 40 hours was evaluated by the trypan blue exclusion method. As a result, HTA1320 inhibited Bax-induced apoptosis-promoting activity.
molecule,measurement,setting,value
VTSSEQIM (ART1320P13V) [SEQ ID NO: 7],suppression of STS-induced apoptosis compared with TAT-ART1320 (SEQ ID NO: 2 peptide),[1],stronger suppressive activity
"TAT-ART1420: modified TAT-ART1320 peptide, ART positions 14 to 20, synthesized with a peptide synthesizer (YGRKKRRQRRRTSSEQIM; TAT-ART1420)",suppression of STS-induced apoptosis compared with TAT-ART1320 (SEQ ID NO: 2 peptide),[1],equal to or greater than that of TAT-ART1320
SEQ ID NO: 2: peptide from proline in the 13th position to methionine in the 20th position of the ART sequence (PTSSEQIM; listed as Homo sapiens),STS-induced mitochondrial localization / translocation of Bax,[2],effect of suppressing SIS-induced mitochondrial translocation of Bax
same,apoptosis-suppressive activity,[3],strong apoptosis-suppressive activity
"TAT-ART1320: HIV-TAT sequence linked to ART positions 13 to 20, synthesized with a peptide synthesizer (YGRKKRRQRRRPTSSEQIM; TAT-ART1320)",inhibition of apoptosis induced by overexpression of Bak,[4],cannot inhibit
same,concentrations suppressing STS-induced apoptosis,[5],1 to 100 nM
same,concentrations suppressing STS-induced apoptosis,[6],100 to 1000 nM
same,change of neurological symptoms scores with dose,[7]; 3 mg/kg and 30 mg/kg groups,dose-dependent decrease
same,number of survived neurons per unit length in hippocampal CA1,"[7]; 30 mg/kg group, four days after reperfusion, control 15.4±5.2",74.5±23.1
same,neurological symptoms score,"[7]; 30 mg/kg group, i.v. then s.c., control 8.2±1.4, P<0.05",2.8±0.6
same,neuronal death in hippocampal CA1,"[7]; 3 and 30 mg/kg groups, four days after reperfusion",significantly suppresses neuronal death
same,STS-induced mitochondrial localization / translocation of Bax,[2],Bax did not localize to mitochondria
same,inhibition of apoptosis induced by overexpression of Bax,[8],inhibits
"SEQ ID NO: 1: peptide from threonine in the 14th position to methionine in the 20th position of the ART sequence (TSSEQIM; Inventor Imoto, Masaya Inventor Tabe, Hirokazu Inventor Tashiro, Etsu Inventor OHMORI, Yusuke; listed as Homo sapiens)",suppression of STS-induced apoptosis compared with TAT-ART1320 (SEQ ID NO: 2 peptide),[1],stronger suppressive activity
same,apoptosis-suppressive activity,[3],stronger apoptosis- suppressive activity than the peptide (SEQ ID NO: 2)
B1,apoptosis-suppressive activity at low concentrations versus high concentrations,[9]; low concentrations,almost equivalent to that at high concentrations
same,inhibition of Bax-induced apoptosis-promoting activity,[9]; various concentrations,inhibited
